Measurements reported in patent EP4768498A1, “PEPTIDE, DROPLET FORMING KIT, DROPLET FORMING METHOD, HYDROPHOBIC SUBSTANCE CONCENTRATION METHOD, AND PROTEIN FOLDING METHOD” (National University Corporation Tokyo University Of …, priority 2023, dated 2026).
Positions of bridges follow the written chain, without caps; N, C: chain ends. No end group written: not given here.

Legend:
[1] = Transmittance measurement (transition temperature); assay type: physicochemical; conditions: 2 wt% solution, 50 mM Tris-HCl (pH: 7.5) containing 0.3 M sodium chloride, absorbance at 600 nm
Protocol: FF-ELP4 or LL-ELP4 was dissolved in 50 mM Tris-HCl (pH: 7.5) containing 0.3 M sodium chloride and incubated at 60°C. LL-ELP4 was dissolved in 50 mM Tris-HCl (pH: 7.5) to a final concentration of 2 wt%. Since FF-ELP4 could not be dissolved to a final concentration of 2 wt%, it was dissolved in 50 mM Tris-HCl (pH: 7.5) to a final concentration of 1 wt%. Transmittance measurement was carried out using an ultraviolet-visible spectrophotometer V-650 manufactured by JASCO Corporation (Tokyo, Japan). For the samples prepared as described above, absorbance at a wavelength of 600 nm was monitored while changing the temperature. A quartz cell (optical path length: 10 mm) of Sansyo Co., Ltd. was used as a measurement cell. […] LL-ELP4-SS was dissolved in 50 mM Tris-HCl (pH: 7.5) containing 0.3 M sodium chloride and incubated at 60°C. LL-ELP4-SS was dissolved in 50 mM Tris-HCl (pH: 7.5) to a final concentration of 2 wt%. Transmittance measurement was carried out using an ultraviolet-visible spectrophotometer V-650 manufactured by JASCO Corporation (Tokyo, Japan). For the samples prepared as described above, absorbance at a wavelength of 600 nm was monitored while changing the temperature. A quartz cell (optical path length: 10 mm) of Sansyo Co., Ltd. was used as a measurement cell.

[2] = test system: Reduced and denatured BPTI; test: Evaluation of incorporation of denatured BPTI into droplets; parameters: species or system Bovine; conditions: for Reduced and denatured BPTI Inside droplets / Reduced and denatured BPTI Outside droplets: BPTI 30 µM, 60°C overnight
Protocol: (§1) FF-ELP4 or LL-ELP4 was dissolved in 50 mM Tris-HCl (pH: 7.5) containing 0.3 M sodium chloride, and pre-incubated at 60°C for 1 minute. […] The mixture was incubated at 60°C overnight, centrifuged (8,000 rpm, 25°C, 30 seconds) using a high-spin mini centrifuge HSC-12000 manufactured by Taiyo Corporation (Osaka, Japan), and quickly separated into a supernatant and a precipitate (droplets). 400 µL of a 1 M HCl aqueous solution was added to each of the supernatant and the precipitate to stop the reaction. For each of the supernatant and the precipitate, the reduced and denatured BPTI or the native BPTI was quantified by HPLC analysis. The analysis was performed by reverse-phase high-performance liquid chromatography (RP-HPLC) using a Primaide HPLC system (1410 UV detector, 1310 column oven, 1110 pump) manufactured by Hitachi High-Tech Corporation (Tokyo, Japan) and a TSKgel Protein C4-300 column (4.6 mmφ × 150 mm) manufactured by Tosoh Corporation (Tokyo, Japan) at a flow rate of 1.0 mL·min^-1 (Solvent A: water containing 0.05% TFA, Solvent B: acetonitrile containing 0.05% TFA; ratio of Solvent A: linear gradient of 95% at 0 min, 80% at 15 min, and 30% at 115 min).

[3] = test system: Native BPTI; test: Evaluation of incorporation of native BPTI into droplets; parameters: species or system Bovine; conditions: BPTI 30 µM, 60°C overnight
Protocol: as §1

[4] = Phase-contrast microscope observation of droplets; assay type: physicochemical; conditions: 60°C
Protocol: Phase-contrast microscope observation was carried out using IX-73 manufactured by Olympus Corporation (Tokyo, Japan). A sample was dropped onto a slide glass, and a cover glass was placed over the sample through a silicone spacer having a thickness of 0.2 mm. The sample was observed while incubating at 60°C. The samples were prepared by dissolving FF-ELP4 or LL-ELP4 in 50 mM Tris-HCl (pH: 7.5) containing 0.3 M sodium chloride. FF-ELP4 was dissolved to a final concentration of 1 wt%. LL-ELP4 was dissolved to a final concentration of 5 wt%.
Phase-contrast microscope observation was carried out using IX-73 manufactured by Olympus Corporation (Tokyo, Japan). A sample in which a cover glass was placed on the peptide solution through a silicone spacer having a thickness of 0.2 mm on a slide glass was observed while incubating at 60°C. The peptide solution was prepared by dissolving LL-ELP4 to 2 wt% and LL-ELP4-SS to 0.7 mM (0.16 wt%) in 50 mM Tris-HCl (pH: 7.5) containing 0.3 M sodium chloride.
Phase-contrast microscope observation was carried out using IX-73 manufactured by Olympus Corporation (Tokyo, Japan). A sample in which a cover glass was placed on the peptide solution through a silicone spacer having a thickness of 0.2 mm on a slide glass was observed while incubating at 60°C. The peptide solution was prepared by dissolving LL-ELP4-SS to 2 wt% in 50 mM Tris-HCl (pH: 7.5) containing 0.3 M sodium chloride.
(§2) A folding test of denatured BPTI was performed in the same manner as in <Folding test of denatured BPTI: LL-ELP4/LL-ELP4-SS mixed solution> described above, except that LL-ELP4-SS was used alone instead of the combination of LL-ELP4 and LL-ELP4-SS. The final concentration of LL-ELP4-SS in the test solution was 0.16 wt%.

[5] = test system: Reduced and denatured BPTI; test: Folding test of denatured BPTI; assay type: biochemical, Bovine; conditions: LL-ELP4-SS alone 0.16 wt%, no droplets, no centrifugation, BPTI 30 µM, 60°C
Protocol: LL-ELP4 and LL-ELP4-SS were dissolved in a buffer (50 mM Tris-HCl, 0.3 M NaCl, pH: 7.5) and pre-incubated at 60°C for 3 minutes. […] The mixture was incubated at 60°C, and when 1 minute, 10 minutes, and 60 minutes had elapsed, it was centrifuged (10,000 rpm, 25°C, 10 seconds) using a high-spin mini centrifuge HSC-12000 manufactured by Taiyo Corporation (Osaka, Japan) and quickly separated into a supernatant and a precipitate. To both the supernatant and the precipitate, 1 M aqueous HCl was added to quench the reaction. The samples were analyzed by reverse-phase high-performance liquid chromatography (RP-HPLC) using a Primaide HPLC system (1410 UV detector, 1310 column oven, and 1110 pump) manufactured by Hitachi, Ltd. (Tokyo, Japan) and a TSKgel Protein C4-300 column (4.6 mm i.d. × 150 mm) manufactured by Tosoh Corporation (Tokyo, Japan) at a flow rate of 1.0 mL min-1 (Solvent A: water containing 0.05% TFA; Solvent B: acetonitrile containing 0.05% TFA; linear gradient of Solvent A: 95% at 0 min, 80% at 15 min, and 30% at 115 min).
as §2

Ac-LLVPGVGVPGVGVPGVGVPGVG-NH2 [LL-ELP4, LL-(VPGVG)4]
transition temperature [1]: 53 °C | Reduced and denatured BPTI Inside droplets ([2]; peptide 2 wt%): 91% | Reduced and denatured BPTI Outside droplets ([2]; peptide 2 wt%): 9% | Reduced and denatured BPTI Inside droplets ([2]; peptide 5 wt%): > 99% | Reduced and denatured BPTI Outside droplets ([2]; peptide 5 wt%): < 1% | aggregation of reduced and denatured BPTI recovered from the droplets ([2]; peptide 5 wt%, redispersed in water): aggregation was suppressed | Native BPTI Inside droplets ([3]; peptide 2 wt%): 3% | Native BPTI Outside droplets ([3]; peptide 2 wt%): 97% | Native BPTI Inside droplets ([3]; peptide 5 wt%): 7% | Native BPTI Outside droplets ([3]; peptide 5 wt%): 93% | droplets observed ([4]; 5 wt% solution): droplets of appropriate size were observed

LL-(VPGVG)2-CGHC-(VPGVG)2 (LLVPGVGVPGVGCGHCVPGVGVPGVG; disulfide 13-16 (inferred)) [LL-ELP4-SS]
transition temperature [1]: 48 °C | droplet formation ([4]; 0.16 wt% solution in the folding test): droplets were not formed | droplets observed ([4]; 2 wt% solution): Droplets of appropriate size were observed | added reduced and denatured BPTI detected as native structural BPTI [5]: ≥ 99%
